# Test results: patent US6746990B2, “2-phenyl-substituted heterocyclic 1,3-ketoenols as herbicides and pesticides” (Bayer Aktiengesellschaft, priority 1995, dated 2004)
# Experiments:
# Format in all cases: in vivo
# [1] = test system: green rice leafhopper (Nephotettix cinticeps); assay: Nephotettix test; conditions: after 6 days; active compound concentration 0.1%; rice seedlings dipped
# Description: (§1) Solvent: 7 parts by weight of dimethylformamide
# (§2) Emulsifier: 1 part by weight of alkylaryl polyglycol ether
# (§3) To produce a suitable preparation of active compound, 1 part by weight of active compound is mixed with the stated amount of solvent and the stated amount of emulsifier, and the concentrate is diluted with water to the desired concentration.
# Rice seedlings (Oryza sativa) are treated by being dipped into the preparation of active compound of the desired concentration and are infested with the green rice leafhopper (Nephotettix cinticeps) while the leaves are still moist.
# After the specified period of time, the destruction in % is determined. 100% means that all the leafhoppers have been killed; 0% means that none of the leafhoppers have been killed.
# Alopecurus [2] = assay: Pre-emergence test, Alopecurus; conditions: application rate 250 g/ha, after three weeks
# Description: (§4) Pre-emergence Test Solvent: 3 parts by weight of acetone Emulsifier: 1 part by weight of alkylaryl polyglycol ether To produce a suitable preparation of active compound, 1 part by weight of active compound is mixed with the stated amount of solvent, the stated amount of emulsifier is added and the concentrate is diluted with water to the desired concentration. Seeds of the test plants are sown in normal soil and, after 24 hours, watered with the preparation of the active compound. It is expedient to keep constant the amount of water per unit area. The concentration of the active compound in the preparation is of no importance, only the amount of active compound applied per unit area being decisive. After three weeks, the degree of damage to the plants is rated in % damage in comparison to the development of the untreated control. The figures denote: 0%=no action (like untreated control) 100%=total destruction
# Digitaria = assay: Pre-emergence test, Digitaria; conditions: application rate 250 g/ha, after three weeks
# Description: as §4
# Echinochloa = assay: Pre-emergence test, Echinochloa; conditions: application rate 250 g/ha, after three weeks
# Description: as §4
# Chenopodium = assay: Pre-emergence test, Chenopodium; conditions: application rate 250 g/ha, after three weeks
# Description: as §4
# Veronica = assay: Pre-emergence test, Veronica; conditions: application rate 250 g/ha, after three weeks
# Description: as §4
# soya beans [3] = assay: Pre-emergence test, tolerance by soya beans; conditions: application rate 250 g/ha
# Description: as §4
# [4] = test system: greenhouse red spider mite (Tetranychus urticae); assay: Tetranychus test (OP-resistant); conditions: after 13 days; active compound concentration 0.1%; infested bean shoots dipped
# Description: Tetranychus Test (OP-resistant)
# as §1, §2, §3
# Bean shoots (Phaseolus vulgaris) which are severely infested with the greenhouse red spider mite (Tetranychus urticae) are dipped into a preparation of the active compound of the desired concentration.
# After the specified period of time, the destruction in % is determined. 100% means that all the spider mites have been killed; 0% means that none of the spider mites have been killed.
# Alopecurus [5] = assay: Post-emergence test, Alopecurus; conditions: application rate 125 g/ha, after three weeks
# Description: (§5) Post-emergence Test Solvent: 5 parts by weight of acetone Emulsifier: 1 part by weight of alkylaryl polyglycol ether To produce a suitable preparation of active compound, 1 part by weight of active compound is mixed with the stated amount of solvent, the stated amount of emulsifier is added and the concentrate is diluted with water to the desired concentration. Test plants which have a height of 5-15 cm are sprayed with the preparation of the active compound in such a way as to apply the particular amounts of active compound desired per unit area. The concentration of the spray liquor is so chosen that the particular amounts of active compound desired are applied in 2000 l of water/ha. After three weeks, the degree of damage to the plants is. rated in % damage in comparison to the development of the untreated control. The figures denote: 0%=no action (like untreated control) 100%=total destruction
# Avena fatua = assay: Post-emergence test, Avena fatua; conditions: application rate 125 g/ha, after three weeks
# Description: as §5
# Setaria = assay: Post-emergence test, Setaria; conditions: application rate 125 g/ha, after three weeks
# Description: as §5
# soya beans [6] = assay: Post-emergence test, tolerance by soya beans; conditions: application rate 125 g/ha
# Description: as §5
# Abutilon = assay: Pre-emergence test, Abutilon; conditions: application rate 250 g/ha, after three weeks
# Description: as §4
# maize = assay: Pre-emergence test, tolerance by maize; conditions: application rate 250 g/ha
# Description: as §4
# Alopecurus myosuroides = assay: Pre-emergence test, Alopecurus myosuroides; conditions: application rate 4000 g/ha, after three weeks
# Description: as §4
# Beta vulgaris = assay: Pre-emergence test, tolerance by Beta vulgaris; conditions: application rate 4000 g/ha
# Description: as §4
# [7] = test system: Boophilis Microplus Resistant/SP-resistant Parkhurst Strain; assay: Test with Boophilis Microplus resistant/SP-resistant Parkhurst strain; conditions: 20 μg/animal injected into the abdomen; adult females
# Description: Test with Boophilis Microplus Resistant/SP-resistant Parkhurst Strain
# Test animals: adult females which have sucked themselves full
# Solvent: dimethyl sulphoxide
# 20 mg of active substance are dissolved in 1 ml of dimethyl sulphoxide, and lesser concentrations are prepared by dilution with the same solvent.
# The test is carried out in 5 replications. 1 μl of the solutions is injected into the abdomen, and the animals are transferred into dishes and kept in a controlled-environment cabinet. The activity is determined via the inhibition of oviposition. 100% means that no tick has deposited eggs.
structure (smiles),measurement,setting,value
"Cc1cc(C)c(C2=C(O)C3(CCC(C)CC3)NC2=O)c(C#N)c1 (single isomer, unassigned) [Example I-1-a-4]",destruction in %,[1],100%
same,damage to Alopecurus,Alopecurus [2],100%
same,damage to Digitaria,Digitaria,100%
same,damage to Echinochloa,Echinochloa,100%
same,damage to Chenopodium,Chenopodium,100%
same,damage to Veronica,Veronica,100%
same,tolerance by soya beans,soya beans [3],good tolerance
same,activity (destruction in %),[4],100%
"CCc1cc(C#N)cc(C)c1C1=C(O)C2(CCC(C)CC2)NC1=O (single isomer, unassigned) [Example I-1-a-5]",destruction in %,[1],100%
same,activity (destruction in %),[4],100%
same,damage to Alopecurus,Alopecurus [5],at least 80%
same,damage to Avena fatua,Avena fatua,at least 80%
same,damage to Setaria,Setaria,at least 80%
same,tolerance by soya beans,soya beans [6],good tolerance
"Cc1cc(C#N)cc(C)c1C1=C(O)C2(CCC(C)CC2)NC1=O (single isomer, unassigned) [Example I-1-a-6]",destruction in %,[1],100%
same,damage to Abutilon,Abutilon,80%
same,tolerance by maize,maize,good tolerance
same,activity (destruction in %),[4],100%
CC1CCC2(CC1)NC(=O)C(c1ccc(S(C)(=O)=O)cc1Cl)=C2O (stereo not drawn) [Example I-1-a-1],destruction in %,[1],100%
same,damage to Alopecurus myosuroides,Alopecurus myosuroides,80%
same,tolerance by Beta vulgaris,Beta vulgaris,good tolerance
same,activity (inhibition of oviposition),[7],100%
CCOC(=O)OC1=C(c2ccc(S(C)(=O)=O)cc2Cl)C(=O)NC12CCC(C)CC2 (stereo not drawn) [Example I-1-c-1],damage to Alopecurus myosuroides,Alopecurus myosuroides,80%
same,tolerance by Beta vulgaris,Beta vulgaris,good tolerance
